Laboratory results reported in PubChem BioAssay AID1919006 (Molecular Pharmacology Branch, DTP, NCI, 2023).
pIC50: −log10 of the molar value. Several values for one entry are separate records, joined by “and”; a condition that tells them apart may be missing. Equal entries are not always repeated.

Tested on: 885512-296-R-J2-PDC complex spheroid growth, % test/control
Assay: Anticancer human tumor 885512-296-R-J2-PDC patient-derived breast carcinoma cell line growth inhibition [AhR]
Conditions: for viability, T/C: stronger effect = lower value
How it was run: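 Agents were dosed in half-log steps down from roughly clinical Cmax, or from 10 microM where Cmax was unknown, alone and with AhR antagonists. Read-out: percent test/control growth of tumor spheroids containing HUVEC and MSC stromal cells.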

[1] = curve of first compound, second compound 0.1 µM
[2] = curve of first compound, second compound 0.316 µM
[3] = curve of first compound, second compound 1 µM
[4] = curve of first compound, second compound 3.16 µM
[5] = curve of first compound, second compound 10 µM
[6] = second compound 0.1 µM, first compound 0.000949 µM
[7] = second compound 0.1 µM, first compound 0.003 µM
[8] = second compound 0.1 µM, first compound 0.00949 µM
[9] = second compound 0.1 µM, first compound 0.03 µM
[10] = second compound 0.1 µM, first compound 0.0949 µM
[11] = second compound 0.1 µM, first compound 0.3 µM
[12] = second compound 0.316 µM, first compound 0.000949 µM
[13] = second compound 0.316 µM, first compound 0.003 µM
[14] = second compound 0.316 µM, first compound 0.00949 µM
[15] = second compound 0.316 µM, first compound 0.03 µM
[16] = second compound 0.316 µM, first compound 0.0949 µM
[17] = second compound 0.316 µM, first compound 0.3 µM
[18] = second compound 1 µM, first compound 0.000949 µM
[19] = second compound 1 µM, first compound 0.003 µM
[20] = second compound 1 µM, first compound 0.00949 µM
[21] = second compound 1 µM, first compound 0.03 µM
[22] = second compound 1 µM, first compound 0.0949 µM
[23] = second compound 1 µM, first compound 0.3 µM
[24] = second compound 3.16 µM, first compound 0.000949 µM
[25] = second compound 3.16 µM, first compound 0.003 µM
[26] = second compound 3.16 µM, first compound 0.00949 µM
[27] = second compound 3.16 µM, first compound 0.03 µM
[28] = second compound 3.16 µM, first compound 0.0949 µM
[29] = second compound 3.16 µM, first compound 0.3 µM
[30] = second compound 10 µM, first compound 0.000949 µM
[31] = second compound 10 µM, first compound 0.003 µM
[32] = second compound 10 µM, first compound 0.00949 µM
[33] = second compound 10 µM, first compound 0.03 µM
[34] = second compound 10 µM, first compound 0.0949 µM
[35] = second compound 10 µM, first compound 0.3 µM
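Further: spheroids exposed to compounds for seven days.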

Nc1ncn(C2CC(O)C(CO)S2)c(=O)n1 (stereo unspecified) + Cc1ccccc1N=Nc1ccc(NC(=O)c2ccnn2C)c(C)c1
pIC50 [1]: 6.69
pIC50 [2]: 6.74
pIC50 [3]: 6.72
pIC50 [4]: 6.58
pIC50 [5]: 7.05
viability, T/C [6]: 92.7%
viability, T/C [7]: 114%
viability, T/C [8]: 106%
viability, T/C [9]: 97.3%
viability, T/C [10]: 70.5%
viability, T/C [11]: 40.2%
viability, T/C [12]: 121%
viability, T/C [13]: 108%
viability, T/C [14]: 134%
viability, T/C [15]: 117%
viability, T/C [16]: 63%
viability, T/C [17]: 40%
viability, T/C [18]: 106%
viability, T/C [19]: 131%
viability, T/C [20]: 135%
viability, T/C [21]: 116%
viability, T/C [22]: 62.3%
viability, T/C [23]: 41.8%
viability, T/C [24]: 96.9%
viability, T/C [25]: 104%
viability, T/C [26]: 106%
viability, T/C [27]: 101%
viability, T/C [28]: 69%
viability, T/C [29]: 47.4%
viability, T/C [30]: 52.6%
viability, T/C [31]: 50.1%
viability, T/C [32]: 57.8%
viability, T/C [33]: 61.1%
viability, T/C [34]: 46.2%
viability, T/C [35]: 33.3%

CC(C)c1c(-c2ccccc2)nc2c(C#N)c[nH]n2c1=O + CC(CO)NC(=O)c1cc(-c2ccc(Cl)cc2)nn(-c2cnn(C)c2)c1=O
pIC50 [1]: < 5.00
pIC50 [2]: < 5.00
pIC50 [3]: < 5.00
pIC50 [4]: < 5.00
pIC50 [5]: < 5.00
viability, T/C (second compound 0.1 µM, first compound 0.0316 µM): 110%
viability, T/C (second compound 0.1 µM, first compound 0.1 µM): 101%
viability, T/C (second compound 0.1 µM, first compound 0.316 µM): 97.6%
viability, T/C (second compound 0.1 µM, first compound 1 µM): 98%
viability, T/C (second compound 0.1 µM, first compound 3.16 µM): 98.2%
viability, T/C (second compound 0.1 µM, first compound 10 µM): 85.5%
viability, T/C (second compound 0.316 µM, first compound 0.0316 µM): 105%
viability, T/C (second compound 0.316 µM, first compound 0.1 µM): 101%
viability, T/C (second compound 0.316 µM, first compound 0.316 µM): 104%
viability, T/C (second compound 0.316 µM, first compound 1 µM): 102%
viability, T/C (second compound 0.316 µM, first compound 3.16 µM): 93.3%
viability, T/C (second compound 0.316 µM, first compound 10 µM): 91.7%
viability, T/C (second compound 1 µM, first compound 0.0316 µM): 105%
viability, T/C (second compound 1 µM, first compound 0.1 µM): 96.4%
viability, T/C (second compound 1 µM, first compound 0.316 µM): 107%
viability, T/C (second compound 1 µM, first compound 1 µM): 91.7%
viability, T/C (second compound 1 µM, first compound 3.16 µM): 99.1%
viability, T/C (second compound 1 µM, first compound 10 µM): 89.2%
viability, T/C (second compound 3.16 µM, first compound 0.0316 µM): 108%
viability, T/C (second compound 3.16 µM, first compound 0.1 µM): 104%
viability, T/C (second compound 3.16 µM, first compound 0.316 µM): 99.5%
viability, T/C (second compound 3.16 µM, first compound 1 µM): 111%
viability, T/C (second compound 3.16 µM, first compound 3.16 µM): 105%
viability, T/C (second compound 3.16 µM, first compound 10 µM): 89.7%
viability, T/C (second compound 10 µM, first compound 0.0316 µM): 109%
viability, T/C (second compound 10 µM, first compound 0.1 µM): 91.2%
viability, T/C (second compound 10 µM, first compound 0.316 µM): 86.9%
viability, T/C (second compound 10 µM, first compound 1 µM): 102%
viability, T/C (second compound 10 µM, first compound 3.16 µM): 97.2%
viability, T/C (second compound 10 µM, first compound 10 µM): 77%

COc1cccc2c1C(=O)c1c(O)c3c(c(O)c1C2=O)CC(O)(C(=O)CO)CC3OC1CC(N)C(O)C(C)O1 (stereo unspecified)
viability, T/C (compound 0.0316 µM): 22.1% and 16.4% and 24.6%
viability, T/C (compound 0.1 µM): 20.5% and 11.7% and 14.2%
viability, T/C (compound 0.316 µM): 8.97% and 3.94% and 5.3%
viability, T/C (compound 1 µM): 0.67% and 0.49% and 0.27%
viability, T/C (compound 3.16 µM): 1.99% and 1.41% and 0.92%
viability, T/C (compound 10 µM): 1.58% and 1.1% and 0.8%
pIC50 (curve of compound): > 7.50

CC(CO)NC(=O)c1cc(-c2ccc(Cl)cc2)nn(-c2cnn(C)c2)c1=O (stereo unspecified)
viability, T/C (compound 0.316 µM): 96.5% [middle of 21 runs]
viability, T/C (compound 1 µM): 98.8% [middle of 21 runs]
viability, T/C (compound 10 µM): 93.9% [middle of 19 runs]
pIC50 (compound alone, run of 08/08/2022): < 5.00

Nc1ncn(C2CC(O)C(CO)S2)c(=O)n1 (stereo unspecified) + Cc1cncc(-c2nc(NCCc3c[nH]c4ccccc34)c3ncn(C(C)C)c3n2)c1
pIC50 [1]: 7.02
pIC50 [2]: 7.03
pIC50 [3]: 7.35
pIC50 [4]: 8.46
pIC50 [5]: > 9.02
viability, T/C [6]: 99.5%
viability, T/C [7]: 110%
viability, T/C [8]: 107%
viability, T/C [9]: 79%
viability, T/C [10]: 53%
viability, T/C [11]: 40.9%
viability, T/C [12]: 98%
viability, T/C [13]: 94.1%
viability, T/C [14]: 99.1%
viability, T/C [15]: 75.9%
viability, T/C [16]: 51.3%
viability, T/C [17]: 38.8%
viability, T/C [18]: 67.6%
viability, T/C [19]: 67.8%
viability, T/C [20]: 70.7%
viability, T/C [21]: 55.7%
viability, T/C [22]: 38.8%
viability, T/C [23]: 33.1%
viability, T/C [24]: 47.4%
viability, T/C [25]: 54.8%
viability, T/C [26]: 47.8%
viability, T/C [27]: 42.5%
viability, T/C [28]: 36%
viability, T/C [29]: 27.5%
viability, T/C [30]: 21%
viability, T/C [31]: 23.5%
viability, T/C [32]: 18.9%
viability, T/C [33]: 15%
viability, T/C [34]: 17.4%
viability, T/C [35]: 13.9%
